Measurements as given in patent US20260042763A1, “PE[…] POSITIVE […] THE TREATMENT OF IRRITABLE BOWEL SYNDROME AND OTHER AILMENTS OF THE PERIPHERAL NERVOUS SYSTEM” (The Johns Hopkins University, priority 2022, published 2026).
Like-named read-outs stand apart in the source and are kept apart here.

Target: T1, human isoforms of GABAA (α3ß2γ2) receptors (Homo sapiens, UniProt P18507+P34903)
T1 construct: expressed in transfected cells
Experiment: Potentiation of GABA-evoked currents at GABAA (α3β2γ2) receptors, automated patch-clamp (QPatch), Example B1
Assay type: cell-based
Details: for Emax: Emax of potentiation, read-out: Max %
Experimental: The ability of compounds exemplified above to potentiate the effect of GABA on GABAA receptors (α3β2γ2) was determined using one or more of the methods described below.
Ltk cells stably expressing the human isoforms of GABAA (α3ß2γ2) receptors were used together with submaximal GABA concentrations to investigate the modulatory effects of the test items. Cells were incubated at 37° C. in a humidified atmosphere with 5% CO2 (rel. humidity about 95%). The cells were continuously maintained in and passaged in sterile culture flasks containing a 1:1 mixture of Dulbecco's modified eagle medium and nutrient mixture D-MEM/F-12 (1×, liquid, with L-Glutamine), supplemented with 10% fetal bovine serum and 1.0% Penicillin/Streptomycin solution. The complete medium as indicated above was supplemented with neomycin. In general, cells were passaged at a confluence of about 80 to 90%. For electrophysiological measurements cells were harvested at a confluence of about 80 to 90% from sterile culture flasks containing culture complete medium. Cells were transferred as suspension in PBS to the QPatch 16X or QPatch HTX system to the centrifuge/washer directly. Expression of GABA receptor was induced by adding Dexamethasone to the cells for 24 to 48 h before experimentation.
Modulatory effects of the compounds of this disclosure were investigated using cells stably transfected with GABA-activated channels of the GABAA (α3ß2γ2) subtype together with submaximal GABA concentrations. Expression of GABA receptor were induced by adding Dexamethasone to the cells for 24 to 48 h before experimentation. In general, cells were passaged at a confluence of about 80 to 90%. For electrophysiological measurements cells were harvested at a confluence of about 80 to 90% from sterile culture flasks containing culture complete medium. Cells were transferred as suspension in PBS to the QPatch 16X or QPatch HTX system to the centrifuge/washer directly. Cells were incubated at 37° C. in a humidified atmosphere with 5% CO2 (rel. humidity about 95%). The cells were continuously maintained in and passaged in sterile culture flasks containing a 1:1 mixture of Dulbecco's modified eagle medium and nutrient mixture D-MEM/F-12 (1×, liquid, with L-Glutamine), supplemented with 10% foetal bovine serum and 1.0% Penicillin/Streptomycin solution and neomycin. The 1× bath solution was made at least every 5 days out of a sterile 10× bath solution, which had been prepared prior to the experimental start of the present study and stored at 1° C. to 9° C. The final bath solution included Sodium Chloride 137 mM, Potassium Chloride 4 mM, Calcium Chloride 1.8 mM, Magnesium Chloride 1 mM, HEPES 10 mM, D-Glucose 10 mM, pH (NaOH) 7.4. The 1× intracellular solution was thawed every day and includes Potassium Chloride 130 mM, Magnesium Chloride 1 mM, Mg-ATP 5 mM, HEPES 10 mM, EGTA 5 Mm, pH (KOH) 7.2. Automated patch-clamping: Cells were transferred as suspension in serum-free medium to the QPatch HTX system and kept in the cell storage tank during experiments. All solutions applied to cells including the intracellular solution were maintained at room temperature (19° C. to 30° C.). After formation of a Gigaohm seal between the patch electrodes and transfected individual Ltk cells were ruptured to assure electrical access to the cell interior (whole-cell patch-configuration). Inward currents were measured upon application of 2.0 μM GABA to patch-clamped cells for 4 s. During the entire experiment the cells were voltage-clamped at a holding potential of −80 mV. For the analysis of test items, GABAA receptors were stimulated by 2.0 μM GABA and test item combinations described below. Thirty-second prewash steps with test items was performed in between two agonist applications. […]

[1] = Ltk cells expressing GABAA α3β2γ2, 2.0 μM GABA, whole-cell, holding potential −80 mV

T1 sequence (P34903 29-492): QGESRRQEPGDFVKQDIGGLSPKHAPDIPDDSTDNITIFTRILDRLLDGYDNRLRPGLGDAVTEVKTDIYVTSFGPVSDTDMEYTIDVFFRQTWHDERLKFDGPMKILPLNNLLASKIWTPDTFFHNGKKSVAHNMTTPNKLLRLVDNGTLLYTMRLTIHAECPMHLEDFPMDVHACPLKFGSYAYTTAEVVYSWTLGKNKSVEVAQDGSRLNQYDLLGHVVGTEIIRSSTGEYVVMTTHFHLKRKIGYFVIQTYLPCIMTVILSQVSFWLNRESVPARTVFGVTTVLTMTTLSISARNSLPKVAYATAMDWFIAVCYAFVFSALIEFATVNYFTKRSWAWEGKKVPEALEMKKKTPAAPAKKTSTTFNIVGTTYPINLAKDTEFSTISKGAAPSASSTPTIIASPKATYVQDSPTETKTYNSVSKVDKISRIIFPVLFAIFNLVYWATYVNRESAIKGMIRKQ
T1 sequence (P47870 25-512 partner limits assumed): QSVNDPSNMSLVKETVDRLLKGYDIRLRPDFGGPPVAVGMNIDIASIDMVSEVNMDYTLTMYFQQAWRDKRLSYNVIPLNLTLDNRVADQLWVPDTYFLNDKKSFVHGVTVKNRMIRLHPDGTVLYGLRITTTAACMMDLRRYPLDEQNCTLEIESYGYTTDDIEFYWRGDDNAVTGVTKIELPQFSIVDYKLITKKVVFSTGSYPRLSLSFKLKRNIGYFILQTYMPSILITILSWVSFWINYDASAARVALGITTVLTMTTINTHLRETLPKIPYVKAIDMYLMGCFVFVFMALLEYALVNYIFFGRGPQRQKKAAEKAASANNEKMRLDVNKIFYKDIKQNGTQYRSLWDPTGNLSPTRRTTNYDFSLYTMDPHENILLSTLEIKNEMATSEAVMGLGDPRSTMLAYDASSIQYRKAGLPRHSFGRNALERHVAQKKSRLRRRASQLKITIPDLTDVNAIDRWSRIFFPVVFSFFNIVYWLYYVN
T1 sequence (P18507 40-475): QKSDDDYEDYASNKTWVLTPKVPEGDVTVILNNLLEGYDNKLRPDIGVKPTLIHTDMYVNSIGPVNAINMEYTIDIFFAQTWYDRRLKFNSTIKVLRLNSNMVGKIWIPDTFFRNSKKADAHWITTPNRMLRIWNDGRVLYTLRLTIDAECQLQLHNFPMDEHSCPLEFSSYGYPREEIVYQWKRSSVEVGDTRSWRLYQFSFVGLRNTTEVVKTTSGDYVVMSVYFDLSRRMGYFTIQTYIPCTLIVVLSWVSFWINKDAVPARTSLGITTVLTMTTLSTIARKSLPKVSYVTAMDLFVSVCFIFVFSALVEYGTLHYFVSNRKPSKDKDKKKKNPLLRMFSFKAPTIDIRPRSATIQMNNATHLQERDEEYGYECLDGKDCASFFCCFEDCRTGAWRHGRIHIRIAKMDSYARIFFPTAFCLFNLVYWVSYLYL

**Q.** `Cc1ccc2c(c1)C(c1ccccc1F)=NCc1nc(C(=O)O)cn1-2` [Compound 226, 6-(2-fluorophenyl)-8-methyl-4H-imidazo[1,2-a][1,4]benzodiazepine-2-carboxylic acid] was tested. Which EC50 did it give?
**A.** < 50 nM

**Q.** And the Emax [1]?
**A.** > 100%

**Q.** Which Emax [1] does the source give for `O=C(O)c1cn2c(n1)C(O)N=C(c1ccccc1F)c1cc(Cl)ccc1-2` (centres unmarked) [Compound 227, 8-chloro-6-(2-fluorophenyl)-4-hydroxy-4H-benzo[f]imidazo[1,2-a][1,4]diazepine-2-carboxylic acid] here?
**A.** 50 to 100%

**Q.** Which EC50 does the source give for `CN(C)CCNC(=O)c1cn2c(n1)CN=C(c1ccccc1F)c1cc(Cl)ccc1-2` [Compound 228, 8-chloro-N-[2-(dimethylamino)ethyl]-6-(2-fluorophenyl)-4H-imidazo[1,2-a][1,4]benzodiazepine-2-carboxamide] here?
**A.** < 50 nM

**Q.** What about the Emax [1] of the same compound?
**A.** 50 to 100%

**Q.** With `COCCOCCOCCOCCOCCOCCOCCOCCNC(=O)c1cn2c(n1)CN=C(c1ccccc1F)c1cc(Cl)ccc1-2` [Compound 229, 8-chloro-6-(2-fluorophenyl)-N-[2-[2-[2-[2-[2-[2-[2-(2-methoxyethoxy)ethoxy]ethoxy]ethoxy]ethoxy]ethoxy]ethoxy]ethyl]-4H-imidazo[1,2-a][1,4]benzodiazepine-2-carboxamide] as the compound, how does the EC50 read?
**A.** > 100 nM

**Q.** And the Emax [1]?
**A.** > 100%

**Q.** How did the EC50 turn out when `NC(=O)[C@H](O)c1cn2c(n1)CN=C(c1ccccc1F)c1cc(Cl)ccc1-2` [Compound 231, (2R)-2-[12-chloro-9-(2-fluorophenyl)-2,5,8-triazatricyclo[8.4.0.0^2,6]tetradeca-1 (10),3,5,8,11,13-hexaen-4-yl]-2-hydroxyacetamide] was run?
**A.** < 50 nM

**Q.** And the Emax [1]?
**A.** > 100%

**Q.** Which EC50 does the source give for `NC(=O)C(NCc1ccccc1)c1cn2c(n1)CN=C(c1ccccc1F)c1cc(Cl)ccc1-2` (centres unmarked) [Compound 232, 2-(Benzylamino)-2-[12-chloro-9-(2-fluorophenyl)-2,5,8-triazatricyclo[8.4.0.0^2,6]tetradeca-1 (10),3,5,8,11,13-hexaen-4-yl]acetamide] here?
**A.** 50 to 100 nM

**Q.** What about the Emax [1] of the same compound?
**A.** 50 to 100%

**Q.** Which EC50 does the source give for `O=C(O)Cc1cn2c(n1)CN=C(c1ccccc1F)c1cc(Cl)ccc1-2` [Compound 233, 2-(8-chloro-6-(2-fluorophenyl)-4H-benzo[f]imidazo[1,2-a][1,4]diazepin-2-yl) acetic acid] here?
**A.** < 50 nM

**Q.** What about the Emax [1] of the same compound?
**A.** > 100%

**Q.** How did the Emax [1] turn out when `O=C(O[C@@H]1O[C@H](C(=O)O)[C@@H](O)[C@H](O)[C@H]1O)c1cn2c(n1)CN=C(c1ccccc1F)c1cc(Cl)ccc1-2` [Compound 234, (2S,3S,4S,5R,6S)-6-((8-chloro-6-(2-fluorophenyl)-4H-benzo[f]imidazo[1,2-a][1,4]diazepine-2-carbonyl)oxy)-3,4,5-trihydroxytetrahydro-2H-pyran-2-carboxylic acid] was run?
**A.** 50 to 100%

**Q.** What about the EC50 (Ltk cells expressing GABAA α3β2γ2, 2.0 μM GABA, whole-cell, holding potential −80 mV, read-out: EC50) of the same compound?
**A.** < 50 nM

**Q.** For `O=C(O)c1nc2n(c1Cl)-c1ccc(Cl)cc1C(c1ccccc1F)=NC2` [Compound 235], which EC50 is on record?
**A.** < 50 nM

**Q.** What about the Emax [1] of the same compound?
**A.** > 100%

**Q.** Which results are given for `O=C(O)c1cn2c(n1)C[N+]([O-])=C(c1ccccc1F)c1cc(Cl)ccc1-2` [Compound 236, 2-carboxy-8-chloro-6-(2-fluorophenyl)-4H-514-benzo[e]imidazo[2,1-c][1,4]diazepin-5-olate]?
**A.** EC50: > 100 nM; Emax [1]: 50 to 100%

**Q.** Which EC50 does the source give for `NC(=O)c1cn2c(n1)CN=C(c1ccccc1F)c1cc(Cl)ccc1-2` [Compound 238, 8-chloro-6-(2-fluorophenyl)-4H-imidazo[1,2-a][1,4] benzodiazepine-2-carboxamide] here?
**A.** < 50 nM

**Q.** And the Emax [1]?
**A.** > 100%

**Q.** With `O=C(O)c1nc2n(c1-c1ccccc1)-c1ccc(Cl)cc1C(c1ccccc1F)=NC2` [Compound 239, 8-chloro-6-(2-fluorophenyl)-1-phenyl-4H-imidazo[1,2-a][1,4]benzodiaze pine-2-carboxylic acid] as the compound, how does the EC50 read?
**A.** > 100 nM

**Q.** And the Emax [1]?
**A.** > 100%

**Q.** How did the EC50 turn out when `CNC(=O)c1cn2c(n1)CN=C(c1ccccc1F)c1cc(Cl)ccc1-2` [Compound 240, 8-chloro-6-(2-fluorophenyl)-N-methyl-4H-imidazo[1,2-a][1,4]benzodiazepine-2-carboxamide] was run?
**A.** < 50 nM

**Q.** And the Emax [1]?
**A.** > 100%

**Q.** Which EC50 does the source give for `CN(C)C(=O)c1cn2c(n1)CN=C(c1ccccc1F)c1cc(Cl)ccc1-2` [Compound 241, 8-chloro-6-(2-fluorophenyl)-N,N-dimethyl-4H-imidazo[1,2-a][1,4]benzodiazepine-2-carboxamide] here?
**A.** < 50 nM

**Q.** And the Emax [1]?
**A.** > 100%

**Q.** `O=C(O)c1nc2n(c1CN1CCC1)-c1ccc(Cl)cc1C(c1ccccc1F)=NC2` [Compound 243, 1-(azetidin-1-ylmethyl)-8-chloro-6-(2-fluorophenyl)-4H-benzo[f]imidazo[1,2-a][1,4]diazepine-2-carboxylic acid] was tested. Which EC50 did it give?
**A.** > 100 nM

**Q.** And the Emax [1]?
**A.** > 100%

**Q.** What does the source list for `O=C(O)c1nc2n(c1CNC1CCCCC1)-c1ccc(Cl)cc1C(c1ccccc1F)=NC2` [Compound 244, 8-chloro-1-((cyclohexylamino)methyl)-6-(2-fluorophenyl)-4H-benzo[f]imidazo[1,2-a][1,4]diazepine-2-carboxylic acid]?
**A.** EC50: > 100 nM; Emax [1]: > 100%

**Q.** Which EC50 does the source give for `O=C(O)c1nc2n(c1CN1CCOCC1)-c1ccc(Cl)cc1C(c1ccccc1F)=NC2` [Compound 245, 8-chloro-6-(2-fluorophenyl)-1-(morpholinomethyl)-4H-benzo[f]imidazo[1,2-a] [1,4]diazepine-2-carboxylic acid] here?
**A.** > 100 nM

**Q.** What about the Emax [1] of the same compound?
**A.** > 100%

**Q.** How did the EC50 turn out when `O=C(O)c1nc2n(c1CN1CCCCC1)-c1ccc(Cl)cc1C(c1ccccc1F)=NC2` [Compound 246, 8-chloro-6-(2-fluorophenyl)-1-(piperidin-1-ylmethyl)-4H-benzo[f]imidazo[1,2-a][1,4]diazepine-2-carboxylic acid] was run?
**A.** > 100 nM

**Q.** And the Emax [1]?
**A.** 50 to 100%

**Q.** How did the EC50 turn out when `O=C(O)c1nc2n(c1CN1CCCC1)-c1ccc(Cl)cc1C(c1ccccc1F)=NC2` [Compound 247, 8-chloro-6-(2-fluorophenyl)-1-(pyrrolidin-1-ylmethyl)-4H-benzo[f]imidazo[1,2-a][1,4]diazepine-2-carboxylic acid] was run?
**A.** > 100 nM

**Q.** And the Emax [1]?
**A.** 50 to 100%

**Q.** Which Emax [1] does the source give for `Nc1c(C(=O)O)nc2n1-c1ccc(Cl)cc1C(c1ccccc1F)=NC2` [Compound 249, 3-Amino-12-chloro-9-(2-fluorophenyl)-2,5,8-triazatricyclo[8.4.0.0^2,6]tetradeca-1 (10),3,5,8,11,13-hexaene-4-carboxylic acid] here?
**A.** > 100%
